Assay results from US20220023316A1, “METHODS FOR THE TREATMENT OF DEPRESSION” (Praxis Precision Medicines, Inc., priority 2018, published 2022).

Key:
[1] = Safety and tolerability in healthy subjects (Cohorts 1-3); format: in vivo, human
Protocol: Blood and urine were obtained during each treatment period at designated times for PK and other analyses (see below). Standard safety assessments were measured during each treatment period.

[2] = tested on: severe major depressive disorder (MDD); assay: Open-label study in patients with severe MDD, Part A efficacy (HAM-D); format: in vivo, human
Protocol: The study is an open-label, study comprised of two dosing periods, Part A and Part B, during which patients were treated with an oral suspension of Compound 1. Part A was an open-label assessment of two dose levels of Compound 1 (45 mg qHS Cohort 1 and 80 mg qHS Cohort, i.e., once daily administration at bedtime) administered for 7 days inpatient followed by 7 days outpatient. PRAX-114 was administered at 4 PM on Day 1 in order to collect post-dosing PK samples that could not be collected with qHS dosing.
(§1) In Part A, participants were administered daily doses of Compound 1 (45 mg Cohort and 80 mg Cohort) at 4 PM on Day 1 and qHS on all other study days for 7 days inpatient followed by 7 days outpatient (with subsequent Cohorts receiving up to 120 mg qHS). Participants checked into the clinic on Day 1. During this period the following assessments were performed: adverse event assessments, vital signs, physical examinations, blood and urine samples for safety assessments, ECGs, C-SSRS assessments, blood samples for PK, and efficacy assessments (HAM-D, MADRS, HAM-A, CGI [CGI-S and CGI-I], PSQI, and SDQ). Baseline assessments occurred on Day 1 prior to administration of study drug. On Day 8, prior to discharge, participants were supplied with sufficient Compound 1 to complete 7 days of dosing.
Patients were administered daily doses of Compound 1 for 7 days inpatient followed by 7 days outpatient.
In the 45 mg Cohort, patients were administered once daily dose of 45 mg of Compound 1 at bedtime for 7 days inpatient followed by once daily dose of 45 mg of Compound 1 at bedtime for 7 days outpatient.
In the 80 mg Cohort, patients were administered once daily dose of 80 mg of Compound 1 at bedtime for 7 days inpatient followed by once daily dose of 80 mg of Compound 1 at bedtime for 7 days outpatient.
Part A: In Part A, HAM-D, MADRS, HAM-A, CGI-S, and CGI-I values were collected in the morning of Days 1, 2, 3, 4, 5, 6, 7, 8, 15, 21 and 28. PSQI and SDQ values will be collected on Days 1, 8, 15, 21 and 28. Part B: In Part B, HAM-D, MADRS, HAM-A, CGI-S, CGI-I, PSQI and SDQ values will be collected on the days described for Part A.
HAM-D Response was defined as a reduction from baseline of >50% in total HAM-D score. HAM-D remission was defined as a total HAM-D score of <7.
Efficacy analysis: For both parts of the clinical trial, the HAM-D total score and change from baseline values will be summarized by treatment group and time point. In addition, the change from baseline in HAM-D total score will also be analyzed using paired t-tests or similar methods. The null hypothesis of this test is that the mean difference in HAM-D total score between paired observations (i.e., pre- and post-treatment) is zero. Similar analysis methods will be used for all secondary and exploratory efficacy variables.

[3] = human, in vivo
Protocol: (§2) Healthy subjects aged 18 to 55 years were treated with an oral suspension of Compound 1 to study the safety, tolerability, pharmacokinetics and pharmacodynamics of Compound 1 in healthy subjects.
(§3) The study was a randomized, double-blind, placebo-controlled multiple escalating dose study comprised of 3 cohorts that each received an oral suspension. Each cohort consisted of two groups: one group treated with Compound 1 and another treated with placebo. In each cohort, the ratio of Compound 1-treated subjects to placebo-treated subjects was 3:1.
(§4) The Compound 1-treated subjects of Cohort 1 were treated with 15.0 mg of Compound 1 once per day (QD). The Compound 1-treated subjects of Cohort 2 were treated with 30.0 mg of Compound 1 QD. The Compound 1-treated subjects of Cohort 3 were treated with 60.0 mg of Compound 1 QD.
(§5) Patients in each cohort were treated with Compound 1 for 14 consecutive days, unless dosing was halted by the Safety Review Committee (SRC). The dosing of subjects in each of the cohorts was staggered with the decision to dose escalate based on SRC review of a minimum of 14 days of observation of safety and tolerability data and review of the available plasma PK data from the preceding cohort(s).
(§6) Compound 1 was administered under fasted conditions (no food or drink, except water, for at least 10 hours prior to dosing). Immediately after administration of Compound 1, the subject was be administered 240 mL water. No additional fluid intake was allowed until 1 hour after Compound 1 administration.
(§7) Cohort 1 subjects received a single 15.0 mg dose of a Compound 1 suspension on the morning of Days 1-14. Cohort 2 subjects received a single 30.0 mg dose of a Compound 1 suspension on the morning of Days 1-14. Cohort 3 subjects received a single 60.0 mg dose of a Compound 1 suspension on the morning of Days 1-14. For all cohorts, the last treatment was administered on the morning of Day 14.
(§8) PK parameters (e.g., Cmax, Tmax, T1/2, AUC, etc.) for healthy patients in each cohort was compared to assess the suitability of Compound 1 suspension for the treatment of MDD. Data were obtained from the blood plasma samples collected from each cohort according to the schedule provided.
(§9) Plasma samples were analyzed to determine Compound 1 concentrations using a validated assay method. Pharmacokinetic variables (including but not limited to Cmax, Tmax and AUC(0-last)), were calculated using non-compartmental analysis. PK parameters for Compound 1 were derived from the plasma concentration data using non-compartmental analysis with Phoenix™ WinNonlin® v 8.0 (Pharsight Corporation, USA).
(§10) Blood (Cohorts 1-3): For each cohort, blood samples were collected on Days 1, 2, 3, 4, 5, 6 and 14 at the following time points: Day 1 at pre-dose (0 hour), 0.25, 0.5, 0.75, 1, 1.5, 2, 2.5, 3, 4, 6, 8, 12, 16 h post-dose; Day 2 at pre-dose (24 h), Day 3 at pre-dose (48 h), Day 4 at pre-dose (72 h), Day 5 at pre-dose (96 h), Day 6 at pre-dose (120 h); Day 14 at pre-dose 0.25, 0.5, 0.75, 1, 1.5, 2, 2.5, 3, 4, 6, 8, 12, 16, 24, 36, 48, and 72 hours. Trough level blood samples were collected on Days 2, 3, 4, 5, 6 and 14, prior to the morning dose administrations.
(§11) Descriptive statistics were calculated for plasma and urine PK parameter and concentration data, and summarized by study day and time point. Arithmetic means, coefficient of variation (CV), standard deviation, median, minimum, and maximum values, and number of observations were calculated for all PK parameters and trough concentration data. Except for Tmax, the geometric mean, geometric standard deviation, and geometric CV were provided for all PK parameter and concentration data.

[4] = Safety and tolerability in MDD patients, Part A; format: in vivo, human; settings: 80 mg Cohort
Protocol: as §1
Adverse events (AEs) will be monitored throughout the duration of the study.

[5] = Multiple escalating dose PK study of oral suspension in healthy subjects (Cohorts 1-3); settings: for t1/2: Day 14 steady state
Protocol: as §2, §3, §4, §5, §6, §7, §8, §9, §10, §11

[6] = Food Effect Cohort (Cohort 4) PK, single 30 mg dose fasted vs fed; settings: healthy subjects
Protocol: (§12) A Food Effect Cohort (Cohort 4) was conducted to assess the effect of food on the PK profile of a single dose of Compound 1 when administered to healthy subjects. The subjects of Cohort 4 were treated with 30 mg of Compound 1 QD.
(§13) Cohort 4 subjects received a single 30 mg dose of a Compound 1 suspension on Days 1 and 5. The Day 1 dose was administered after a minimum of 10 hour fasting. No additional fluid intake was allowed until 1 hour after drug administration. A standard meal was given at least 4 hours post-dose. The Day 5 dose was administered following a high-fat, high calorie meal. Participants remained at the clinical site for a total of 8 days to complete PK sampling after the second dose.
as §9
(§14) Urine (Cohort 4): No urine analysis was conducted in Cohort 4.

[7] = human, in vivo, 30 mg
Protocol: as §12, §13, §9, §14

[8] = Cohorts 1-3, 15-60 mg QD for 14 days

COC[C@@]1(O)CC[C@@]2(C)[C@@H](CC[C@@H]3[C@@H]2CC[C@]2(C)[C@@H](C(=O)Cn4ccnc4)CC[C@@H]32)C1 [Compound 1, 3α-Hydroxy-3β-methoxymethyl-21-(1′-imidazolyl)-5α-pregnan-20-one]
Serious Adverse Events [1, 8]: no Serious Adverse Events | clinically relevant vital sign, ECG, or lab abnormalities [1, 8]: no clinically relevant vital sign, ECG, or lab abnormalities | elevated mood ([1]; doses of 30 mg and 60 mg QD): several subjects experienced elevated mood | patients meeting HAM-D Response or Remission criterion ([2]; 45 mg Cohort (45 mg qHS), Day 7, 13 patients): 11 of the 13 | patients meeting HAM-D Response or Remission criteria ([2]; 45 mg Cohort (45 mg qHS), Day 15, 13 patients): 8 of the 13 | least squares Mean Change from Baseline in HAM-D score ([2]; 80 mg Cohort (80 mg qHS), Day 7): −20.0 | least squares Mean Change from Baseline in HAM-D score ([2]; 80 mg Cohort (80 mg qHS), Day 15): −16.0 | patients meeting HAM-D Response or Remission criteria ([2]; 80 mg Cohort (80 mg qHS), Day 15, 7 patients): 6 of the 7 | Efficacy (reduction Mean Change from Baseline in HAM-D score) ([2]; as monotherapy and in combination with another antidepressant): observed | symptoms of MDD ([2]; daily dose of 45 mg or 80 mg, oral suspension, MDD patients): reduced symptoms of moderate to severe MDD | Efficacy (reduction Mean Change from Baseline in HAM-D score) ([2]; patients undergoing first course of antidepressant treatment and patients that failed previous courses): observed | increase in Cavg, AUCss and AUCinf with dose [3]: proportional increase | increase in Cmax and AUC parameters at steady state with dose [3]: approximate proportional increase | Adverse Event profile compared to the 45 mg Cohort [4]: no change in Adverse Event profile | tolerability of the dose [4]: well tolerated | t1/2 ([5]; Cohort 1, 15.0 mg QD oral suspension, Geo Mean): 14.613 h | t1/2 ([5]; Cohort 1, 15.0 mg QD oral suspension, Mean): 14.77 ± 2.26 h | t1/2 ([5]; Cohort 1, 15.0 mg QD oral suspension, Median): 15.26 h | t1/2 ([5]; Cohort 2, 30.0 mg QD oral suspension, Geo Mean): 12.647 h | t1/2 ([5]; Cohort 2, 30.0 mg QD oral suspension, Mean): 12.70 ± 1.23 h | t1/2 ([5]; Cohort 2, 30.0 mg QD oral suspension, Median): 12.90 h | Cmax ([5]; Cohort 2, 30.0 mg QD oral suspension, fasted, Day 1, Geometric Mean): 120.018 ng/mL | accumulation factor of the dosing interval (ratio of AUCDay14/AUCDay1) ([5]; Cohort 3, 60.0 mg QD): 0.89 | t1/2 ([5]; Cohort 3, 60.0 mg QD oral suspension, Geo Mean): 12.164 h | t1/2 ([5]; Cohort 3, 60.0 mg QD oral suspension, Mean): 12.23 ± 1.32 h | t1/2 ([5]; Cohort 3, 60.0 mg QD oral suspension, Median): 12.42 h | t1/2 ([6]; Fed (Day 1) n =10 as head prints, single 30 mg oral suspension after high-fat, high calorie meal, Mean (SD)): 11.26 (0.8641) h | t1/2 fasted versus fed ([6]; single 30 mg dose): similar | Cmax higher under fasting conditions compared to fed [7]: 1.5-1.6 times | Tmax under fasting compared to fed conditions [7]: tendency for a shorter Tmax | AUCinf ([7]; po): 602.3 (304.84) h · ng/mL
